Laboratory results taken from ChEMBL document CHEMBL3992523, “Potent Inhibition of Nitric Oxide-Releasing Bifendate Derivatives against Drug-Resistant K562/A02 Cells in Vitro and in Vivo” (J Med Chem, 2017).
Activity calls are given as the source filed them. The calls are words filed in the database; no cut-off is given here.

Key:
[1] = organism: Homo sapiens; test: Inhibition of ERK phosphorylation in human K562/A02 cells at 1 uM measured after 48 hrs by Western blot analysis; type: cell-based
[2] = tested on: K562/A02; test: Effect on P-gp expression in P-gp overexpressing/drug resistant human K562/A02 cells up to 8 uM by RT-PCR method; type: functional, cell-based
[3] = biological target: RAC-alpha serine/threonine-protein kinase (Homo sapiens) (UniProt P31749); test: Inhibition of AKT phosphorylation in human K562/A02 cells at 2 uM in presence of hemoglobin measured after 24 hrs by Western blot analysis; type: cell-based
[4] = tested on: K562/A02; test: Down regulation of HIF-alpha expression in P-gp overexpressing/drug resistant human K562/A02 cells at 1 uM measured after 48 hrs by Western blot analysis; type: functional, cell-based
[5] = tested on: Mus musculus; test: Toxicity in BALB/c nude mouse assessed as change in body weight at 1000 mg/kg, iv measured up to 14 days; type: organism-based; settings: in vivo, 336 h
[6] = tested on: K562/A02; test: Down regulation of HIF-alpha expression in P-gp overexpressing/drug resistant human K562/A02 cells at 8 uM after 24 hrs by Western blot analysis; type: functional, cell-based
[7] = tested on: Mus musculus; test: Toxicity in BALB/c nude mouse assessed as abnormality in drinking at 1000 mg/kg, iv measured up to 14 days; type: organism-based; settings: in vivo, 336 h
[8] = organism: Homo sapiens; test: Inhibition of P-gp in human K562/A02 cells assessed as increase in intracellular rhodamine123 accumulation at 0.33 to 10 uM measured after 1 hr by flow cytometry; type: cell-based
[9] = Drug metabolism in P-gp overexpressing/drug resistant human K562/A02 cells assessed as nitric oxide production at 100 uM measured at 240 mins by Griess assay; type: ADME, cell-based; settings: k562/a02, 4 h
[10] = Drug metabolism in P-gp overexpressing/drug resistant human K562/A02 cells assessed as nitric oxide production at 20 uM up to 6 hrs by Griess assay; type: ADME, cell-based; settings: k562/a02, 6 h
[11] = tested on: K562/A02; test: Anti-proliferative activity against P-gp overexpressing/drug resistant human K562/A02 cells measured after 72 hrs by MTS assay; type: functional, cell-based; settings: K562/A02, 72 h
[12] = tested on: K562/A02; test: Induction of nitration of mitochondrial cytochrome c in P-gp overexpressing/drug resistant human K562/A02 cells at 10 uM in presence of hemoglobin measured after 24 hrs by Western blot analysis; type: functional, cell-based
[13] = tested on: Mus musculus; test: Toxicity in P-gp overexpressing/drug resistant human K562/A02 cells xenografted BALB/c nude mouse assessed as change in body weight at 120 mg/kg, iv administered every other day for 21 days measured on day 2,4,6,8,10,12,14,16,18,20,22 of dosing; type: organism-based; settings: in vivo, 504 h
[14] = tested on: K562/A02; test: Antitumor activity against P-gp overexpressing/drug resistant human K562/A02 cells xenografted in BALB/c nude mouse assessed as reduction in tumor volume at 120 mg/kg, iv administered every other day for 21 days measured every other day during dosing; type: functional, organism-based
[15] = tested on: K562/A02; test: Anti-proliferative activity against P-gp overexpressing/drug resistant human K562/A02 cells assessed as decrease in cell survival at 1 uM in presence of hemoglobin measured after 24 hrs by MTS assay; type: functional, cell-based
[16] = tested on: K562/A02; test: Antitumor activity against P-gp overexpressing/drug resistant human K562/A02 cells xenografted in BALB/c nude mouse assessed as tumor growth inhibition at 120 mg/kg, iv administered every other day for 21 days measured post last dose relative to control; type: functional; settings: 504 h, read-out: TGI
[17] = Drug metabolism in P-gp overexpressing/drug resistant human K562/A02 cells assessed as nitric oxide production at 100 uM in presence of hemoglobin measured over 30 to 300 mins by Griess assay; type: ADME, cell-based; settings: k562/a02, 100 µM
[18] = tested on: K562; test: Effect on rhodamine123 accumulation in human K562 cells at 0.33 to 10 uM measured after 1 hr by flow cytometry; type: functional, cell-based
[19] = tested on: K562; test: Anti-proliferative activity against human K562 cells measured after 72 hrs by MTS assay; type: functional, cell-based; settings: K562, 72 h
[20] = tested on: Mus musculus; test: Toxicity in BALB/c nude mouse assessed as abnormality in eating at 1000 mg/kg, iv measured up to 14 days; type: organism-based; settings: in vivo, 336 h
[21] = biological target: RAC-alpha serine/threonine-protein kinase (Homo sapiens) (UniProt P31749); test: Inhibition of AKT phosphorylation in P-gp overexpressing/drug resistant human K562/A02 cells at 8 uM after 24 hrs by Western blot analysis
[22] = tested on: K562/A02; test: Induction of nitration of mitochondrial cytochrome c in P-gp overexpressing/drug resistant human K562/A02 cells at 10 uM measured after 24 hrs by Western blot analysis; type: functional, cell-based
[23] = organism: Homo sapiens; test: Inhibition of ERK phosphorylation in P-gp overexpressing/drug resistant human K562/A02 cells at 8 uM after 24 hrs by Western blot analysis
[24] = Permeability in human Caco2 cells assessed as concentration ratio of basolateral to apical side at 100 uM measured at 10 mins post dose by HPLC analysis; type: ADME, cell-based; settings: caco-2, 10 min
[25] = organism: Homo sapiens; test: Effect on P-gp ATPase activity in human K562/A02 cell membranes assessed as remaining ATP level by measuring relative light units at 40 uM in presence of MgATP measured after 40 mins by luminescence based P-gp-Glo assay (reference value: 216508 +/- 7426 RLU)
[26] = organism: Homo sapiens; test: Inhibition of NF-kappaB phosphorylation in human K562/A02 cells at 2 uM in presence of hemoglobin measured after 24 hrs by Western blot analysis; type: cell-based
[27] = organism: Homo sapiens; test: Induction of nitration of P-gp in P-gp overexpressing/drug resistant human K562/A02 cells at 10 uM in presence of hemoglobin measured after 24 hrs by Western blot analysis
[28] = biological target: RAC-alpha serine/threonine-protein kinase (Homo sapiens) (UniProt P31749); test: Inhibition of AKT phosphorylation in human K562/A02 cells at 1 uM measured after 48 hrs by Western blot analysis; type: cell-based
[29] = tested on: K562/A02; test: Antitumor activity against P-gp overexpressing/drug resistant human K562/A02 cells xenografted in BALB/c nude mouse assessed as reduction in tumor weight at 120 mg/kg, iv administered every other day for 21 days measured post last dose; type: functional, organism-based
[30] = organism: Homo sapiens; test: Induction of nitration of P-gp in P-gp overexpressing/drug resistant human K562/A02 cells at 10 uM measured after 24 hrs by Western blot analysis
[31] = organism: Homo sapiens; test: Inhibition of NF-kappaB phosphorylation in P-gp overexpressing/drug resistant human K562/A02 cells at 8 uM after 24 hrs by Western blot analysis
[32] = tested on: K562/A02; test: Down regulation of HIF-alpha expression in human K562/A02 cells at 2 uM in presence of hemoglobin measured after 24 hrs by Western blot analysis; type: functional, cell-based
[33] = organism: Homo sapiens; test: Inhibition of NF-kappaB phosphorylation in human K562/A02 cells at 1 uM measured after 48 hrs by Western blot analysis; type: cell-based
[34] = Permeability in human Caco2 cells assessed as concentration ratio of basolateral to apical side at 100 uM measured at 5 mins post dose by HPLC analysis; type: ADME, cell-based; settings: caco-2, 5 min
[35] = tested on: Mus musculus; test: Induction of nitration of mitochondrial cytochrome c in tumor of iv dosed BALB/c nude mouse xenografted with P-gp overexpressing/drug resistant human K562/A02 cells administered every other day for 21 days by Western blot analysis; type: functional, organism-based
[36] = Drug metabolism in P-gp overexpressing/drug resistant human K562/A02 cells assessed as nitric oxide production at 20 uM by DAF-FMDA staining based fluorescent microscopic analysis; type: ADME, cell-based; settings: k562/a02, 20 µM, TDE = time-dependent effect
[37] = tested on: Mus musculus; test: Toxicity in BALB/c nude mouse assessed as effect on survival at 1000 mg/kg, iv measured up to 14 days; type: organism-based; settings: in vivo, 336 h
[38] = organism: Homo sapiens; test: Inhibition of ERK phosphorylation in human K562/A02 cells at 2 uM in presence of hemoglobin measured after 24 hrs by Western blot analysis; type: cell-based
[39] = Resistant factor, ratio of IC50 for P-gp overexpressing/drug resistant human K562/A02 cells to IC50 for human K562 cells; type: functional
[40] = tested on: K562/A02; test: Effect on P-gp expression in P-gp overexpressing/drug resistant human K562/A02 cells up to 8 uM by Western blot analysis; type: functional, cell-based

Chain of RAC-alpha serine/threonine-protein kinase (Homo sapiens) (P31749 whole entry): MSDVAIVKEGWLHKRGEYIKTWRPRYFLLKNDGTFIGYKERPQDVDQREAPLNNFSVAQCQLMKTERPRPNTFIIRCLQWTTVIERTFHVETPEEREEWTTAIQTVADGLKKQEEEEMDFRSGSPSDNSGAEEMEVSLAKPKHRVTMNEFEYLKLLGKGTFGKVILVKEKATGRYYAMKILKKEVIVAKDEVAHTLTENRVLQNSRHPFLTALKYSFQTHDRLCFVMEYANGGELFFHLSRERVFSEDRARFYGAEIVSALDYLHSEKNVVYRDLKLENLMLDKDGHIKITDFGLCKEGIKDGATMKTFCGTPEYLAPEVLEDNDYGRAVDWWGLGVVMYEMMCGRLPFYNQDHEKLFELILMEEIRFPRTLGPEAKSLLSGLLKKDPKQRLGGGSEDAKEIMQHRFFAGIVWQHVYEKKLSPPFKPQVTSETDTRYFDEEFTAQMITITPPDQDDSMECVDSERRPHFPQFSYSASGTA

COC(=O)c1cc(OC)c2c(c1-c1c(C(=O)OC3CCN(CC(=O)OCCCCOc4no[n+]([O-])c4S(=O)(=O)c4ccccc4)CC3)cc(OC)c3c1OCO3)OCO2
inhibition [1]: Active | Activity [2]: inactive | inhibition [3]: inactive | Activity [4]: Active | Activity [5]: Non-Toxic | Activity [6]: Active | Activity [7]: Non-Toxic | inhibition [8]: Active | Drug metabolism [9]: Metabolite_Detected | Drug metabolism [10]: Metabolite_Detected | IC50 [11]: 550 nM | Activity [12]: inactive | Activity [13]: Non-Toxic | Activity [14]: Active | Activity [15]: inactive | inhibition in vivo at 120 mg/kg [16]: 51.4% | Drug metabolism [17]: Metabolite_Notdetected | Activity [18]: inactive | IC50 [19]: 690 nM | Activity [20]: Non-Toxic | inhibition [21]: Active | Activity [22]: Active | inhibition [23]: Active | Ratio [24]: 0.53 | Activity [25]: 241000 RLU | inhibition [26]: inactive | Activity [27]: inactive | inhibition [28]: Active | Activity [29]: Active | Activity [30]: Active | inhibition [31]: Active | Activity [32]: inactive | inhibition [33]: Active | Ratio [34]: 0.14 | Activity [35]: Dose-dependent effect | Drug metabolism [36]: Tde | Activity [37]: Non-Toxic | inhibition [38]: inactive | Ratio IC50 [39]: 0.8 | Activity [40]: inactive
